From PMC4919375, “Improved in vivo antitumor effect of a daunorubicin - GnRH-III bioconjugate modified by apoptosis inducing agent butyric acid on colorectal carcinoma bearing mice” (Investigational New Drugs, 2016)

Tests used:
NSG healthy mice = experiment: Chronic toxicity of daunorubicin on NSG healthy mice; format: in vivo, mouse
Description: NSG adult male mice, weighing 26–34 g, were used. Daunorubicin was dissolved in distilled water at a concentration that allowed the dose to be given in a volume of 0.1 mL/10 g body weight. In this experiment, each group consisted of 3 mice, which were treated by intraperitoneal (i.p.) administration on days 1, 4, 8, 12 and 16. The toxicity was assessed on the basis of lifespan and body weight and the survival time was followed for 20 days.

[1] = test system: HT-29 orthotopic primary human colon carcinoma; experiment: Tumor growth inhibition, orthotopic HT-29 human colon carcinoma in NSG mice; format: in vivo, mouse; details: orthotopic HT-29 in NSG mice, Dau 1 mg/kg i.v. weekly x7, 7 mice/group; for Tumor growth inhibition compared to the control group: tumor weight on day 50, bioconjugates 15 mg Dau content/kg i.v. x5 then 7.5 mg Dau content/kg i.p. x8, twice a week; for Tumor weight on day 50 after tumor transplantation: relative to control, bioconjugates 15 mg Dau content/kg i.v. x5 then 7.5 mg/kg i.p. x8, mean
Text: Female NSG mice, weighing 24–28 g, were used in this study. The xenografts were established by subcutaneous injection of ca. 10^6 HT-29 (GnRH receptor positive) human colon carcinoma cells, which were from ATCC and cultured according to their standards. The mice with palpable tumors were killed by cervical-dislocation, disinfected with iodine, and the subcutaneous tumor was dissected out aseptically. Tumor pieces of 2–3 mm^3 were transplanted under aseptic conditions, orthotopically, into narcotized NSG mice.
For direct implantation, mice were anesthetized (narcotic mixture: tiletamine, zolazepam, xylazine, butorphanol) and the abdomen was sterilized with iodine and alcohol swabs. A small midline incision (0.5 cm) was made and the colorectal part of the intestine was exteriorized. Serosa of the site where the tumor pieces were to be implanted was removed. A piece of 2 mm^3 HT-29 human colon tumor was implanted on the top of the animal intestine; an 8/0 surgical (polypropylene) suture was used to suture it on the wall of the intestine. The intestine was returned to the abdominal cavity and the abdominal wall was closed with 4/0 surgical (polyglycolic acid) sutures. The wound was sterilized with iodine and alcohol swab again and the animals were kept in a sterile environment. For pain release and rehydration, mice were treated s.c. with 100 mg/kg algopyrine in Ringer solution containing 5 % glucose. On the next day, no signs of pain and stress of mice were observed.
(§1) Based on the results of the chronic toxicity study, we used only 1 mg (1.773 μmol)/kg free Dau, weekly, in the Dau treated group. Thirteen treatments were applied from the day 5 after tumor transplantation until the day 50 in the groups treated with the bioconjugates (every Monday and Thursday). The treatments were performed by i.v. (intravenous) or i.p. administration; the compounds were dissolved in distilled water (0.1 mL/10 g body weight).
In this experiment, 7 mice/group were used for the treatment with the bioconjugates (GnRH-III[^4Lys(Ac),^8Lys(Dau = Aoa)] and GnRH-III[^4Lys(Bu),^8Lys(Dau = Aoa)]) as well as in the control group.
The bioconjugates were administered at different doses during the treatment period. In the first five treatments, they were i.v. administered, at a dose of 28.435 μmol/kg body weight (15 mg Dau content in the bioconjugate/kg). From the 6th to the 13th treatment, they were i.p. administered at a dose of 14.217 μmol/kg body weight (7.5 mg Dau content in the bioconjugate/kg). The first five doses represented the initial round of treatments, which was followed by the maintenance therapy. […]
After that, the tumors were removed and the tumor weight was determined in all cases. […]

liver = experiment: Macroscopic liver toxicity (liver weight); format: in vivo, mouse; details: Dau 1 mg/kg i.v. weekly x7; for Liver weight on day 50 after tumor transplantation: relative to control, HT-29 bearing NSG mice, bioconjugates 15 then 7.5 mg Dau content/kg twice a week, mean
Description: as §1
(§2) The bioconjugates were administered at different doses during the treatment period. In the first five treatments, they were i.v. administered, at a dose of 28.435 μmol/kg body weight (15 mg Dau content in the bioconjugate/kg). From the 6th to the 13th treatment, they were i.p. administered at a dose of 14.217 μmol/kg body weight (7.5 mg Dau content in the bioconjugate/kg). The first five doses represented the initial round of treatments, which was followed by the maintenance therapy. In the maintenance treatments, 5 % glucose solution instead of distilled water was used, in order to minimize the harmful effects of tfa salts that were present in the lyophilized bioconjugates.
(§3) The mice from all groups were sacrificed by deadly overslept cocktail (0.3 mL/mouse concentrated nembutal (pentobarbitone) solution), on day 50 after tumor transplantation.

heart = experiment: Liver- and cardiotoxicity, histological examination and side effects; format: in vivo, mouse; details: at the applied doses; liver weight, hematoxylin and eosin histology of heart, light microscopy
Text: The removed and fixed tissue samples were dehydrated in a graded series of ethanol, infiltrated with xylene and embedded into paraffin. Histological sections were stained with Harris hematoxylin and eosin (10:1, v/v, 1 % solutions) in acidified 70 % ethanol and mounted. The histological samples were examined under a light microscope (Olympus CH30, Olympus Optical, Japan).

[2] = test system: HT-29 orthotopic primary human colon carcinoma; experiment: Macroscopic metastases on different organs; format: in vivo, mouse; details: orthotopic HT-29 in NSG mice, day 50; 7 animals in each group
Description: as §1, §2, §3

[3] = test system: HT-29 orthotopic primary human colon carcinoma; experiment: Proliferative index in orthotopic HT-29 tumor tissues (BrdU); format: in vivo, mouse; details: orthotopic HT-29 in NSG mice, BrdU positive cells; relative to control; mean
Description: (§4) Before ending the experiment (30 min prior to sacrificing the mice), the tumor bearing animals were injected i.p. with 5-bromo-2 V-deoxyuridine (BrdU, 200 mg/kg; Sigma-Aldrich Kft, Budapest, Hungary). After 6 h, 5–7 μm thick tissue sections were excised from the newly frozen tumors and used for the detection of BrdU positive cells using an anti-BrdU monoclonal antibody (Becton Dickinson Hungary Kft., Budapest, Hungary), according to the manufacturer’s protocol. Positive cells were visualized with TRITC-conjugated anti-mouse IgG (1:100, Sigma). Endothelial cells were distinguished from tumor cells by treating the samples with rat anti-mouse CD31 antibody and labelled with biotinylated anti-rat IgG and streptavidin-FITC (Vector Laboratories, Burlingame, CA). The nuclei were stained with the Hoechst 33,342 dye (Molecular Probes, Eugene, OR). The number of labelled HT-29 tumor cells and the quantity of CD31-positive samples were determined in two different tumors by microscopic analysis of 6 independent regions. The vascularization extent of primary tumors was determined by microscopic analysis of two different living tumors, where four independent areas of living cells were counted and the percentage of separated endothelial cells covering a 10× magnification field of vision was calculated.

[4] = test system: HT-29 orthotopic primary human colon carcinoma; experiment: Vascularization in orthotopic HT-29 tumor tissues (CD31); format: in vivo, mouse; details: orthotopic HT-29 in NSG mice, CD31-positive endothelial cells; control 100 %; mean
Description: as §4

GnRH receptor = details: butyrated compared with acetylated bioconjugate; cited from earlier work
Text: (§5) In our research, lamprey GnRH-III (Glp-His-Trp-Ser-His-Asp-Trp-Lys-Pro-Gly-NH2, where Glp is pyroglutamic acid) has been employed as a key molecule for drug targeting. […] Thus, hormonal side effects in case of targeted tumor therapy using GnRH-III as a homing device are expected to be insignificant, this feature being important in the treatment of hormone independent tumors like colorectal cancer. Considering that lysine in position 8 of GnRH-III can be us ...

[5] = test system: HT-29 human colon cancer cells; details: cited from earlier work
Text: as §5

[6] = butyrated version compared with acetylated; previous in vitro studies; cited from earlier work
Text: In our research, GnRH-III peptide was mainly employed as a targeting moiety, due to its low endocrine effect in mammals and significant antiproliferative effect on different types of cancer cells. […] However, the efficacy of the bioconjugates was highly dependent on the tumor type and whether this was subcutaneously or orthotopically developed in mice. Orthotopically developed tumors represent the ...

Compound	Tumor growth inhibition compared to the control group [1]	Tumor weight on day 50 after tumor transplantation [1]	Liver weight on day 50 after tumor transplantation (liver)	Metastasis on diaphragm, animals affected/animals in group [2]	Metastasis on diaphragm, percent of animals [2]	Metastasis on liver, animals affected/animals in group [2]	Metastasis on liver, percent of animals [2]	Metastasis on lung, animals affected/animals in group [2]	Metastasis on lung, percent of animals [2]	Metastasis on lymph node, animals affected/animals in group [2]	Metastasis on pancreas, animals affected/animals in group [2]	Metastasis on pancreas, percent of animals [2]	Metastasis on spleen, animals affected/animals in group [2]	Metastasis on spleen, percent of animals [2]	Proliferation index (%) [3]	also measured
COc1cccc2c1C(=O)c1c(O)c3c(c(O)c1C2=O)C[C@@](O)(C(C)=O)C[C@@H]3O[C@H]1C[C@H](N)[C@H](O)[C@H](C)O1 [Daunorubicin]	about 30%	70.3%	89.1%	3/7	42.9%	7/7	100%	7/7	100%	4/7	0/7	0%	0/7	0%	98.6%	Day on which the first animal died (NSG healthy mice; 1 mg/kg i.p. on days 1, 4, 8, 12 and 16, NSG healthy male mice, 3 mice/group, experiment stopped on day 20): 20 days; Mice died (NSG healthy mice; 2 mg/kg i.p. on days 1, 4, 8, 12 and 16, died on day 13 after the fourth treatment, NSG healthy male mice, 3 mice/group): 2 of 3; Body weight change (NSG healthy mice; 1 or 2 mg/kg i.p. on days 1, 4, 8, 12 and 16, both doses, NSG healthy male mice): significant loss of weight; Body weight of the animals at the end (NSG healthy mice; decreased from ~30 g during 20 days, i.p. on days 1, 4, 8, 12 and 16, NSG healthy male mice): ~ 20 g; Maximum tolerated dose (NSG healthy mice; immunodeficient tumor bearing mice): 1–2 mg/kg/week; Decrease of average liver weight (liver; vs control, day 50, not significant): about 11%; Liver- or cardiotoxicity (heart): neither the bioconjugates nor the free daunorubicin showed any liver- or cardiotoxicity; Vascularization (number of blood vessels), to the control [4]: 112%
GnRH-III[^4Lys(Bu),^8Lys(Dau = Aoa)]	~ 40%	60.6%	105.0%	3/7	42.9%	7/7	100%	7/7	100%	3/7	0/7	0%	1/7	14.3%	84.5%	Metastasis on lymph node, percent of animals [2]: 42.9%; Binding to the GnRH receptor (affinity) (GnRH receptor): higher affinity; IC50 [5]: 2200 ± 600 nM; Cellular uptake [6]: higher receptor binding affinity and cellular uptake
